{"source": "patent US5368707A", "about": "“Convenient determination of trace lead in whole blood and other fluids” (priority 1993, dated 1994)", "type_in_all_cases": "biochemical, pig", "key": {"[1]": {"target": "T1, isocitrate dehydrogenase (Sus scrofa, UniProt P33198)", "T1 construct": "purchased Sigma, St. Louis, Mo; ICD Type VI", "T1 sequence (P33198 9-421)": "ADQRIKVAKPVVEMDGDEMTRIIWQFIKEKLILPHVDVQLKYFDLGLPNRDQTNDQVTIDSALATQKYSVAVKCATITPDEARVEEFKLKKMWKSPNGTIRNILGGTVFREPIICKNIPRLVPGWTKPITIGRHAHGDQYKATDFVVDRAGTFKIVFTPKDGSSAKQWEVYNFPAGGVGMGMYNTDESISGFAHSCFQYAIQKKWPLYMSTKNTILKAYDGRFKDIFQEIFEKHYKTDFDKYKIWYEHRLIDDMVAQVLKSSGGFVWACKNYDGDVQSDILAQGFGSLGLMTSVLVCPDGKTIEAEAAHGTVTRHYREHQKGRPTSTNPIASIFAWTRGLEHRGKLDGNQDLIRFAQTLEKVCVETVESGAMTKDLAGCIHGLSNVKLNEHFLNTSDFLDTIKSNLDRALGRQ", "experiment": "ICDH inhibition by lead in the presence of CoSO4 (Example 8)", "conditions": "1 mM CoSO4", "description": "A major problem in the measurement of lead in blood is the interference by various blood proteins and, as in the majority of clinical samples, the presence of excess amounts of EDTA. The inventors have discovered that lead chelated with EDTA is exchangeable with cobalt(II). As shown in this example, lead Pb(II) is displaced from EDTA by cobalt(II) and detected by its inhibition of isocitrate dehydrogenase (ICDH).\nMicromolar concentrations of lead were determined through ICDH inhibition in the presence of 1 mM CoSO4."}, "[2]": {"target": "T1, isocitrate dehydrogenase", "experiment": "Effect of pH on inhibition of isocitrate dehydrogenase by lead ion (Example 7)", "conditions": "for Current / Inhibition: 1.0 U/mL enzyme, 50 mM Tris", "description": "(§1) The inventors have shown that less than 1 μg/dL of lead in solution may be measured employing the enzyme isocitrate dehydrogenase. The measurements are sensitive to several factors, including pH, enzyme concentration, co-factor concentration and temperature. The following example illustrates the effect of pH on enzyme inhibition.\nInhibition of the enzyme isocitrate dehydrogenase was calculated based on the amperometric signal (I) which is the mediator oxidation current measured with a glassy carbon electrode at an applied potential of +100 mV. Inhibition was determined as (Iuninhibited -Iinhibited)/Iuninhibited. 50 mM Tris buffer at various pH values as shown in Table 2 was used with 1.0 U/mL enzyme in the solution."}, "[3]": {"target": "T1, isocitrate dehydrogenase", "experiment": "Sensitivity of isocitrate dehydrogenase to lead ion (detection level)", "description": "Pig heart NADP-linked isocitric dehydrogenase (ICD, EC 1.1.1.42), an oxidoreductase, is sensitive to trace levels of lead ion as low as 1 μg/dl. […] In fact, at low concentrations of activator, e.g., <200 ppb Mn^++, the activity of ICD is proportional to Mn^++ and may be used to determine activator concentration (Guilbault, 1970). Inactivation by inhibitors is useful for determining inhibitor concentration. Specificity of enzymes for activators, or inhibitors, is not as great as for the natural substrate of the enzyme, but in some cases inhibitor concentration may be selectively determined. Silver and mercury have been determined in the presence of each other using isocitrate dehydrogenase (Mealor and Townshend, 1968). However, until now, there has been no satisfactory rapid amperometric method to determine lead ion based on ICD inhibition, much less a simple method to determine low lead ion concentrations in whole blood.\nThe inventors have developed a highly sensitive method for the determination of lead ion in solution. Isocitrate dehydrogenase, under specific conditions, may be employed in an assay to quantitatively determine lead ion in the range 0-30 μg per deciliter of solution. Assay sensitivity can be adjusted to a desired concentration range for lead by altering one or more of several parameters such as the concentration of isocitric dehydrogenase. Lower enzyme concentrations increase sensitivity to lead ion.\nas §1"}, "[4]": {"target": "T1, isocitrate dehydrogenase", "experiment": "Amperometric ICDH activity with lead-containing whole blood samples", "source_text": "The present invention concerns approaches to and methods for determining lead ion levels in whole blood. […] Isocitrate dehydrogenase for example is inhibited by lead. […] This is likely due to binding of lead by blood proteins such as albumin or other proteins, although it is also possible that the enzyme is stabilized by an unidentified blood component."}}}
{"smiles": "[Pb+2]", "note": "[lead ion]", "values": [{"measurement": "Inhibition", "setting": "[1]; 2.4 μM lead", "result": 24, "unit": "%"}, {"measurement": "Inhibition", "setting": "[1]; 4.8 μM lead", "result": 46, "unit": "%"}, {"measurement": "Inhibition", "setting": "[1]; 12 μM lead", "result": 71, "unit": "%"}, {"measurement": "Current", "setting": "[2]; pH 7.5, 5.5 μg/dL Pb", "result": 749, "unit": "nA"}, {"measurement": "Inhibition", "setting": "[2]; pH 7.5, 5.5 μg/dL Pb", "result": 0, "unit": "%"}, {"measurement": "Current", "setting": "[2]; pH 7.5, 11.1 μg/dL Pb", "result": 754, "unit": "nA"}, {"measurement": "Inhibition", "setting": "[2]; pH 7.5, 11.1 μg/dL Pb", "result": 0, "unit": "%"}, {"measurement": "Current", "setting": "[2]; pH 7.5, 16.6 μg/dL Pb", "result": 760, "unit": "nA"}, {"measurement": "Inhibition", "setting": "[2]; pH 7.5, 16.6 μg/dL Pb", "result": -1, "unit": "%"}, {"measurement": "Current", "setting": "[2]; pH 7.5, 22.1 μg/dL Pb", "result": 750, "unit": "nA"}, {"measurement": "Inhibition", "setting": "[2]; pH 7.5, 22.1 μg/dL Pb", "result": 0, "unit": "%"}, {"measurement": "Current", "setting": "[2]; pH 7.5, 27.6 μg/dL Pb", "result": 761, "unit": "nA"}, {"measurement": "Inhibition", "setting": "[2]; pH 7.5, 27.6 μg/dL Pb", "result": -1, "unit": "%"}, {"measurement": "Inhibition (in words)", "setting": "[2]; pH 7.5, 27.6 μg/dL lead", "result": "no significant inhibition"}, {"measurement": "Inhibition (in words)", "setting": "[2]; pH 7.5, up to about 28 mg per deciliter lead (so in the source)", "result": "very little if any inhibition"}, {"measurement": "Current", "setting": "[2]; pH 8.0, 5.5 μg/dL Pb", "result": 673, "unit": "nA"}, {"measurement": "Inhibition", "setting": "[2]; pH 8.0, 5.5 μg/dL Pb", "result": 6, "unit": "%"}, {"measurement": "Current", "setting": "[2]; pH 8.0, 11.1 μg/dL Pb", "result": 613, "unit": "nA"}, {"measurement": "Inhibition", "setting": "[2]; pH 8.0, 11.1 μg/dL Pb", "result": 14, "unit": "%"}, {"measurement": "Current", "setting": "[2]; pH 8.0, 16.6 μg/dL Pb", "result": 532, "unit": "nA"}, {"measurement": "Inhibition", "setting": "[2]; pH 8.0, 16.6 μg/dL Pb", "result": 25, "unit": "%"}, {"measurement": "Current", "setting": "[2]; pH 8.0, 22.1 μg/dL Pb", "result": 439, "unit": "nA"}, {"measurement": "Inhibition", "setting": "[2]; pH 8.0, 22.1 μg/dL Pb", "result": 38, "unit": "%"}, {"measurement": "Current", "setting": "[2]; pH 8.0, 27.6 μg/dL Pb", "result": 303, "unit": "nA"}, {"measurement": "Inhibition", "setting": "[2]; pH 8.0, 27.6 μg/dL Pb", "result": 58, "unit": "%"}, {"measurement": "enzyme inhibition", "setting": "[2]; pH 8, up to about 28 mg per deciliter lead (so in the source)", "result": "about 60%"}, {"measurement": "Current", "setting": "[2]; pH 8.5, 5.5 μg/dL Pb", "result": 636, "unit": "nA"}, {"measurement": "Inhibition", "setting": "[2]; pH 8.5, 5.5 μg/dL Pb", "result": 18, "unit": "%"}, {"measurement": "Current", "setting": "[2]; pH 8.5, 11.1 μg/dL Pb", "result": 522, "unit": "nA"}, {"measurement": "Inhibition", "setting": "[2]; pH 8.5, 11.1 μg/dL Pb", "result": 33, "unit": "%"}, {"measurement": "Current", "setting": "[2]; pH 8.5, 16.6 μg/dL Pb", "result": 406, "unit": "nA"}, {"measurement": "Inhibition", "setting": "[2]; pH 8.5, 16.6 μg/dL Pb", "result": "less than 50%"}, {"measurement": "Inhibition", "setting": "[2]; pH 8.5, 16.6 μg/dL Pb, listed as Lead ion", "result": 48, "unit": "%"}, {"measurement": "Current", "setting": "[2]; pH 8.5, 22.1 μg/dL Pb", "result": 241, "unit": "nA"}, {"measurement": "Inhibition", "setting": "[2]; pH 8.5, 22.1 μg/dL Pb", "result": 69, "unit": "%"}, {"measurement": "Current", "setting": "[2]; pH 8.5, 27.6 μg/dL Pb", "result": 99, "unit": "nA"}, {"measurement": "Inhibition", "setting": "[2]; pH 8.5, 27.6 μg/dL Pb, listed as Lead ion", "result": 87, "unit": "%"}, {"measurement": "Inhibition", "setting": "[2]; pH 8.5, 27.6 μg/dL Pb, listed as lead", "result": "approximately 87%"}, {"measurement": "enzyme inhibition", "setting": "[2]; pH 8.5, up to about 28 mg per deciliter lead (so in the source)", "result": "about 90%"}, {"measurement": "Current", "setting": "[2]; pH 9.0, 5.5 μg/dL Pb", "result": 4, "unit": "nA"}, {"measurement": "Inhibition", "setting": "[2]; pH 9.0, 5.5 μg/dL Pb", "result": 99, "unit": "%"}, {"measurement": "Current", "setting": "[2]; pH 9.0, 11.1 μg/dL Pb", "result": 21, "unit": "nA"}, {"measurement": "Inhibition", "setting": "[2]; pH 9.0, 11.1 μg/dL Pb", "result": 98, "unit": "%"}, {"measurement": "Inhibition (in words)", "setting": "[2]; pH 9.0, between 0 and 5.5 mg per deciliter lead (so in the source)", "result": "complete inhibition"}, {"measurement": "Inhibition (in words)", "setting": "[2]; pH 9.0, up to 5.5 μg/dL lead", "result": "completely inhibited"}, {"measurement": "reversibility of binding to ICDH", "setting": "[3]", "result": "binds irreversibly to the enzyme"}, {"measurement": "detectable lead ion level", "setting": "[3]; ICDH inhibition", "result": "~1", "unit": "µg/dL"}, {"measurement": "quantitatively determinable lead range", "setting": "[3]; isocitrate dehydrogenase assay, in solution", "result": "0-30 μg per deciliter"}, {"measurement": "inhibition of isocitrate dehydrogenase activity", "setting": "[4]", "result": "do not detectably inhibit isocitrate dehydrogenase activity"}]}
